Experimental data from patent US20060100431A1, “Biologically active compounds” (Amura Therapeutics Limited, priority 2002, published 2006).

Assays:
CPB2.8ΔCTE = molecular target: T1, CPB2.8ΔCTE (Leishmania mexicana, UniProt P36400); test: Leishmania mexicana cysteine protease B (CPB) peptidase activity assay (Ki); type: biochemical; conditions: Ki, inhibitors of Leismania mexicana CPB protease
T1 construct: Wild-type recombinant CPB without the C-terminal extention (i.e. CPB2.8ΔCTE); Dr. Jeremy Mottram (Wellcome Centre for Molecular Parasitology, University of Glasgow)
T1 sequence (P36400 126-343, stated change not applied): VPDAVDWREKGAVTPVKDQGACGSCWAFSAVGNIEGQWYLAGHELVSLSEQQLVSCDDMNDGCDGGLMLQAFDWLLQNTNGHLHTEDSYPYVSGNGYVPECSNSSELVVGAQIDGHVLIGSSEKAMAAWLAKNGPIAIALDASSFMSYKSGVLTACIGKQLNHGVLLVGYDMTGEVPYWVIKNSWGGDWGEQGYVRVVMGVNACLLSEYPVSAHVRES
Procedure, shortened: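 Apparent Ki was derived by regression of activity against inhibitor concentration, assuming pure-competitive reversible binding. Reaction: 0.25 nM CPB lacking the C-terminal extension, pH 5.5 acetate buffer (1 mM EDTA, 200 mM NaCl, 10 mM DTT), 25 °C, followed by continuous substrate fluorescence.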

Wild-type cruzipain = Wild-type cruzipain (Trypanosoma cruzi, UniProt P25779); test: Trypanosoma cruzi cruzipain peptidase activity assay (Ki); type: biochemical; conditions: read-out: Ki, inhibitors of cruzain and cruzipains
Wild-type cruzipain, sequence (P25779 whole entry): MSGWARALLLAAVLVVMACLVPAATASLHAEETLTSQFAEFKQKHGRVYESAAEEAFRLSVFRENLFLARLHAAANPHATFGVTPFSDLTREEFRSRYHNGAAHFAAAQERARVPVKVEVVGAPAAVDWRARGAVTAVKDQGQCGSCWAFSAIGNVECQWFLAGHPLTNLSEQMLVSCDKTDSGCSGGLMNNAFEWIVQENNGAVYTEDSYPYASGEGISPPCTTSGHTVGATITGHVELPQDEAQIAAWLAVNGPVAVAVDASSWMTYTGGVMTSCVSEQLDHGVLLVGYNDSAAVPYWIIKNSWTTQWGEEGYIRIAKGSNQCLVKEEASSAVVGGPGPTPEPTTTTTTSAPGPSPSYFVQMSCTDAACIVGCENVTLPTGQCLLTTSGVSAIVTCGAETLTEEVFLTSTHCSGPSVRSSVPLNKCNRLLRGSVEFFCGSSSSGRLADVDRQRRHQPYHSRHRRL
Procedure, shortened: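 Native cruzipain from T. cruzi Dm28 epimastigotes, 2.5 nM, in 100 mM sodium phosphate pH 6.75 with 1 mM EDTA and 10 mM L-cysteine, 25 °C, DMSO <1%. Rates taken from continuous fluorogenic substrate read; Ki by regression assuming reversible pure-competitive inhibition.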

Structure (SMILES) | Ki (CPB2.8ΔCTE) [µM] | Ki (Wild-type cruzipain) [µM]
CC(C)C[C@H](NC(=O)c1ccc(N(C)C)cc1)C(=O)N1CC[C@@H]2[C@H]1C(=O)CN2C(=O)c1ccc(C(F)(F)F)cc1 [Example 69, (3aR,6aS)-4-Dimethylamino-N-{(1S)-3-methyl-1-[6-oxo-4-(4 trifluoromethyl-benzoyl)-hexahydro-pyrrolo[3,2-b]pyrrole-1-carbonyl]-butyl}-benzamide] | < 5 | < 5
CC(C)C[C@H](NC(=O)c1ccc(N(C)C)cc1)C(=O)N1CC[C@@H]2[C@H]1C(=O)CN2C(=O)c1cccc(OC(F)(F)F)c1 [Example 70, (3aR,6aS)-4-Dimethylamino-N-{(1S)-3-methyl-1-[6-oxo-4-(3-trifluoromethoxy-benzoyl)-hexahydro-pyrrolo[3,2-b]pyrrole-1-carbonyl]-butyl}-benzamide] | < 5 | < 5
CC(C)C[C@H](NC(=O)c1ccc(N(C)C)cc1)C(=O)N1CC[C@@H]2[C@H]1C(=O)CN2C(=O)c1ccc(OC(F)(F)F)cc1 [Example 71, (3aR,6aS)-4-Dimethylamino-N-{(1S)-3-methyl-1-[6-oxo-(4-trifluoromethoxy-benzoyl)-hexahydro-pyrrolo[3,2-b]pyrrole-1-carbonyl]-butyl}-benzamide] | < 5 | < 5
CC(C)C[C@H](NC(=O)c1ccc(N(C)C)cc1)C(=O)N1CC[C@@H]2[C@H]1C(=O)CN2C(=O)c1ccccc1Cl [Example 72, (3aR,6aS)-N-{(1S)-1-[4-(2-Chloro-benzoyl)-6-oxo-hexahydro-pyrrolo[3,2-b]pyrrole-1-carbonyl)-3-methyl-butyl}-4-dimethylamino-benzamide] | < 5 | < 5
CC(C)C[C@H](NC(=O)c1ccc(N(C)C)cc1)C(=O)N1CC[C@@H]2[C@H]1C(=O)CN2C(=O)c1ccncc1 [Example 82, (3aR,6aS)-4-Dimethylamino-N-{(1S)-3-methyl-1-[6-oxo-4-(pyridinecarbonyl)-hexahydro-pyrrolo[3,2-b]pyrrole-1-carbonyl]-butyl}-benzamide] | < 5 | < 5
CC(C)C[C@H](NC(=O)c1ccc(N(C)C)cc1)C(=O)N1CC[C@@H]2[C@H]1C(=O)CN2C(=O)c1cccs1 [Example 95, (3aR,6aS)-4-Dimethylamino-N-{(1S)-3-methyl-1-[6-oxo-4-(thiophene-2-carbonyl)-hexahydro-pyrrolo[3,2-b]pyrrole-1-carbonyl]-butyl}-benzamide] | < 5 | < 5
CC(C)C[C@H](NC(=O)c1ccc(N(C)C)cc1)C(=O)N1CC[C@@H]2[C@H]1C(=O)CN2C(=O)c1ccco1 [Example 96, (3aR,6aS)-4-Dimethylamino-N-{(1S)-1-[4-(furan-2-carbonyl)-6-oxo-hexahydro-pyrrolo[3,2-b]pyrrole-1-carbonyl]-3-methyl-butyl}-benzamide] | < 5 | < 5
CC(C)C[C@H](NC(=O)c1ccc(N(C)C)cc1)C(=O)N1CC[C@@H]2[C@H]1C(=O)CN2C(=O)c1ccoc1 [Example 97, (3aR,6aS)-4-Dimethylamino-N-{(1S)-1-[4-(furan-3-carbonyl)-6-oxo-hexahydro-pyrrolo[3,2-b]pyrrole-1-carbonyl]-3-methyl-butyl}-benzamide] | < 5 | < 5
CC(C)C[C@H](NC(=O)c1ccc(N(C)C)cc1)C(=O)N1CC[C@@H]2[C@H]1C(=O)CN2C(=O)c1cc2ccccc2s1 [Example 100, (3aR,6aS)-N-{(1S)-1-[4-(Benzo[b]thiophene-2-carbonyl)-6-oxo-hexahydro-pyrrolo[3,2-b]pyrrole-1-carbonyl)-3-methyl-butyl}-4-dimethylamino-benzamide] | < 5 | < 5
CC(C)C[C@H](NC(=O)c1ccc(N(C)C)cc1)C(=O)N1CC[C@@H]2[C@H]1C(=O)CN2C(=O)c1cc2ccccc2o1 [Example 101, (3aR,6aS)-N-{(1S)-1-[4-(Benzofuran-2-carbonyl)-6-oxo-hexahydro-pyrrolo[3,2-b]pyrrole-1-carbonyl]-3-methyl-butyl}-4-dimethylamino-benzamide] | < 5 | < 5
CC(C)CCC(=O)N1CC(=O)[C@@H]2[C@H]1CCN2C(=O)[C@H](CC(C)C)NC(=O)c1ccc(N(C)C)cc1 [Example 105, (3aR,6aS)-4-Dimethylamino-N-{(1S)-3-methyl-1-[4-(4-methyl-pentanoyl)-6-oxo-hexahydro-pyrrolo[3,2-b]pyrrole-1-carbonyl]-butyl}-benzamide] | < 5 | < 5
Cc1ccc(C(=O)N2CC(=O)[C@@H]3[C@H]2CCN3C(=O)[C@H](CC(C)C)NC(=O)c2ccc(N(C)C)cc2)cc1C [Example 114, (3aR,6aS)-4-Dimethylamino-N-{(1S)-1-[4-(3,4-dimethyl-benzoyl)-6-oxo-hexahydro-pyrrolo[3,2-b]pyrrole-1-carbonyl]-3-methyl-butyl}-benzamide] | < 5 | < 5
Cc1cc(C(=O)N2CC(=O)[C@@H]3[C@H]2CCN3C(=O)[C@H](CC(C)C)NC(=O)c2ccc(N(C)C)cc2)ccc1F [Example 115, (3aR,6aS)-4-Dimethylamino-N-{(1S)-1-[4-(4-fluoro-3-methyl-benzoyl)-6-oxo-hexahydro-pyrrolo[3,2-b]pyrrole-1-carbonyl]-3-methyl-butyl}-benzamide] | < 5 | < 5
CC(C)C[C@H](NC(=O)c1ccc(N(C)C)cc1)C(=O)N1CC[C@@H]2[C@H]1C(=O)CN2C(=O)c1ccc(F)c(F)c1 [Example 116, (3aR,6aS)-N-{(1S)-1-[4-(3,4-Difluoro-benzoyl)-6-oxo-hexahydro-pyrrolo[3,2-b]pyrrole-1-carbonyl]-3-methyl-butyl}-4-dimethylamino-benzamide] | < 5 | < 5
CCCCC(=O)N1CC(=O)[C@@H]2[C@H]1CCN2C(=O)[C@H](CC(C)C)NC(=O)c1ccc(N(C)C)cc1 [Example 128, (3aR,6aS)-4-Dimethylamino-N-[(1S)-3-methyl-1-(6-oxo-4-pentanoyl-hexahydro-pyrrolo[3,2-b]pyrrole-1-carbonyl)-butyl]-benzamide] | < 5 | < 5
CC(C)CC(=O)N1CC(=O)[C@@H]2[C@H]1CCN2C(=O)[C@H](CC(C)C)NC(=O)c1ccc(N(C)C)cc1 [Example 130, (3aR,6aS)-4-Dimethylamino-N-{(1S)-3-methyl-1-[4-(3-methyl-butyryl)-6-oxo-hexahydro-pyrrolo[3,2-b]pyrrole-1-carbonyl]-butyl}-benzamide] | < 5 | < 5
CC(C)C[C@H](NC(=O)c1ccc(N(C)C)cc1)C(=O)N1CC[C@@H]2[C@H]1C(=O)CN2C(=O)CC1CC1 [Example 132, (3aR,6aS)-N-{(1S)-1-[4-(2-Cyclopropyl-acetyl)-6-oxo-hexahydro-pyrrolo[3,2-b]pyrrole-1-carbonyl]-3-methyl-butyl}-4-dimethylamino-benzamide] | < 5 | < 5
CC(C)C[C@H](NC(=O)c1ccc(N(C)C)cc1)C(=O)N1CC[C@@H]2[C@H]1C(=O)CN2C(=O)C1CCCC1 [Example 134, (3aR,6aS)-N-[(1S)-1-(4-Cyclopentanecarbonyl-6-oxo-hexahydro-pyrrolo[3,2-b]pyrrole-1-carbonyl)-3-methyl-butyl]-4-dimethylamino-benzamide] | < 5 | < 5
CCCCCCC(=O)N1CC(=O)[C@@H]2[C@H]1CCN2C(=O)[C@H](CC(C)C)NC(=O)c1ccc(N(C)C)cc1 [Example 136, (3aR,6aS)-4-Dimethylamino-N-[(1S)-1-(4-heptanoyl-6-oxo-hexahydro-pyrrolo[3,2-b]pyrrole-1-carbonyl)-3-methyl-butyl]-benzamide] | < 5 | < 5
CC(C)C[C@H](NC(=O)c1ccc(N(C)C)cc1)C(=O)N1CC[C@@H]2[C@H]1C(=O)CN2C(=O)CC1CCCCC1 [Example 137, (3aR,6aS)-N-{(1S)-1-[4-(2-Cyclohexyl-acetyl)-6-oxo-hexahydro-pyrrolo[3,2-b]pyrrole-1-carbonyl]-3-methyl-butyl}-4-dimethylamino-benzamide] | < 5 | < 5
CC(C)C[C@H](NC(=O)c1ccc(N(C)C)cc1)C(=O)N1CC[C@@H]2[C@H]1C(=O)CN2C(=O)C1CC=CCC1 (stereo partly drawn) [Example 138, (3aR,6aS)-N-{(1S)-1-[4-(Cyclohex-3-enecarbonyl)-6-oxo-hexahydro-pyrrolo[3,2-b]pyrrole-1-carbonyl]-3-methyl-butyl}-4-dimethylamino-benzamide] | < 5 | < 5
COC1CCCC(C(=O)N2CC(=O)[C@@H]3[C@H]2CCN3C(=O)[C@H](CC(C)C)NC(=O)c2ccc(N(C)C)cc2)C1 (stereo partly drawn) [Example 139, (3aR,6aS)-4-Dimethylamino-N-{(1S)-1-[4-(3-methoxy-cyclohexanecarbonyl)-6-oxo-hexahydro-pyrrolo[3,2-b]pyrrole-1-carbonyl]-3-methyl-butyl}-benzamide] | < 5 | < 5
CC(C)C[C@H](NC(=O)c1ccc(N(C)C)cc1)C(=O)N1CC[C@@H]2[C@H]1C(=O)CN2C(=O)N1CCOCC1 [Example 142, (3aR,6aS)-4-Dimethylamino-N-{(1S)-3-methyl-1-[4-(morpholin-4-carbonyl)-6-oxo-hexahydro-pyrrolo[3,2-b]pyrrole-1-carbonyl]-butyl}-benzamide] | < 5 | < 5
CC(C)C[C@H](NC(=O)c1ccc(N(C)C)cc1)C(=O)N1CC[C@@H]2[C@H]1C(=O)CN2C(=O)[C@H](CO)NC(=O)OCc1ccccc1 [Example 147, (3aS,6aR)-((1S)-2-{4-[(2S)-2-(4-Dimethylamino-benzoylamino)-4-methyl-pentanoyl]-3-oxo-hexahydro-pyrrolo[3,2-b]pyrrole-1-yl}-1-hydroxymethyl-2-oxo-ethyl)-carbamic acid benzyl ester] | < 5 | < 5
